This is an account of results in patent US20240425483A1, “INDOLINES AS PROTAC COMPOUNDS” (NeoPhore Limited, priority 2021, published 2024).

The target in this assay is T1, PMS2 protein (Homo sapiens, UniProt P54278).
T1 construct: host or cells: SW620 human colorectal carcinoma cells
T1 sequence (P54278 1-862): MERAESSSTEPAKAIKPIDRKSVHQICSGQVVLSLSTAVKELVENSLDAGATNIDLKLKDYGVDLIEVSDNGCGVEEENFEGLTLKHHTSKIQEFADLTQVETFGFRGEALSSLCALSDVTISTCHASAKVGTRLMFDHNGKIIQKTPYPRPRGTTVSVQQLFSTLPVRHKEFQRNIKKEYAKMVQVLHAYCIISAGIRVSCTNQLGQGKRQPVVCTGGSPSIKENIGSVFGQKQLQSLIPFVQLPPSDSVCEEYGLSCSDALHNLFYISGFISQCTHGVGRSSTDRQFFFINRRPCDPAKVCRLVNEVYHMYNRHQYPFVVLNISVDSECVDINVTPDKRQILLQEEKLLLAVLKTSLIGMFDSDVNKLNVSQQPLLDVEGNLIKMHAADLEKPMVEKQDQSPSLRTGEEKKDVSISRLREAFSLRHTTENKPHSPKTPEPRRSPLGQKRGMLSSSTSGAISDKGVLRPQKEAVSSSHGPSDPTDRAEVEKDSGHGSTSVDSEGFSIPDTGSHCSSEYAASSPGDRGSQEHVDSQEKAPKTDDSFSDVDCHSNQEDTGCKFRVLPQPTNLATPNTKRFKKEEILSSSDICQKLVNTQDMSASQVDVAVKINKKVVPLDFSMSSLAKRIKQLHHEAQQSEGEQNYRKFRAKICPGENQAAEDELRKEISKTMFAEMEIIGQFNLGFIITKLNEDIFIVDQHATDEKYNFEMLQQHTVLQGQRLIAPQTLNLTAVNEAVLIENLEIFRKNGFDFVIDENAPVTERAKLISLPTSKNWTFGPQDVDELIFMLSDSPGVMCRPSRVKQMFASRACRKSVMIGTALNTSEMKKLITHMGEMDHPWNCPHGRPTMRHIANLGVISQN
The experiment in a line: PROTAC screening in SW620 human colorectal carcinoma cells, PMS2 protein level by JESS Western blot. The note with it: SW-620, 24 h, 1 uM compound, normalised to actin and DMSO control, Table A1. The format is cell-based. Here is the method: PROTAC Screening Protocol Using SW620 Human Colorectal Carcinoma Cells
SVW620 cells (ATCC/[…]) were cultured in T75 Falcon flasks in culture media (F12/DMEM 1:1 media, 10% FCS, +L-G supplement). Cells were split twice a week, for a maximum of 6 weeks. Media was aspirated, and cells washed with 10 mL of sterile PBS. PBS was aspirated, and cells incubated with 1.5 mL TrypLE for up to 5 minutes at 37° C., 5% CO2. Once cells had detached, TrypLE was neutralised with 10 mL culture media and cells mixed 1:1 with Trypan blue and quantified using a Luna cell counter. Cells were then seeded into fresh T75 flasks with 1×10^6 cells and 10 mL culture media.
SW620 cells, cultured and counted as above, were used to seed 12 well plates at a density of 1.5×10^5 cells/well and incubated overnight at 37° C., 5% CO2. Test compounds were solubilized in DMSO to a stock concentration of 10 mM and serially diluted in DMSO and media to their test concentration; the final concentration of DMSO was 0.1% (v/v). Each concentration was tested in triplicate. SW620 cells were incubated with test compound for 24 hours at 37° C., 5% CO2. Media was aspirated from each well, and each well washed with 1 mL ice cold PBS. PBS was then aspirated, and 50 μL of cold lysis buffer (RIPA buffer supplemented with 1× protease inhibitors, Benzonase, MgCl) was added to each well; plates were then incubated on ice for 5 minutes. Cells were scraped using a pipette tip before being transferred to a fresh Eppendorf. Samples were spun at maximum speed in a benchtop centrifuge for 5 minutes at 4° C. and supernatant was then transferred to fresh tubes. Samples were stored at −80° C. until analysis.
Bicinchonininic acid (BCA) protein assay standards (2-0.125 mg/mL BSA) were prepared in advance. 6 μL of each standard was pipetted in duplicate into rows A and B of a 384-well assay plate. Test samples were diluted in lysis buffer (1:3-1:10) in a 384-well plate in duplicate. BCA Reagents were combined 50:1, Part A:Part B and 50 μL added to each well. Plates were incubated for 30 min at 37° C. in a plate incubator and read using a BCA protein 384 protocol on an EnSpire plate reader. Protein concentrations were calculated from a standard curve.
JESS Western Blot Protocol
Protein lysates were prepared using Protein Simple EZ standard pack reagents: 40 μL distilled H2O was added to a DTT tube (clear) and treated with 20 μL 10× sample buffer and 20 μL DTT to 5×MM tube (pink). 20 μL dH2O was added to biotinylated ladder tube (green).
Test samples were prepared by dilution to the required concentration (0.1 mg/mL) in 0.1× sample buffer. 1.25 μL 5× fluorescent master mix from the EZ standard pack was added to 5 μL sample for each lane to be loaded (e.g. 2.5 μL+10 μL if loading same sample into 2 wells). Samples were vortexed, briefly spun down and heated at 95° C. for 5 min in a PCR machine then vortexed again and briefly spun down before loading onto JESS cassettes (catalogue No: SM-W004) according to manufacturer's instructions (https://www.proteinsimple.com/technical_library.html?product=simplewestern&def_list=list). Protein expression was determined by the peak area of the target protein signal. Peak area of the target protein was normalised to peak area of the loading control (actin) and to DMSO control.
In general terms: Immunoblotting shows a protein as a band on a membrane.
In turn, `Cc1c(O)cc(O)c(C(=O)N2Cc3ccc(CN4CCN(CCOCCOCCOCCNc5ccc6c(c5)C(=O)N(C5CCC(=O)NC5=O)C6=O)CC4)cc3C2)c1OCc1ccccc1` (stereo not shown) [Example 13, 5-((2-(2-(2-(2-(4-((2-(2-(Benzyloxy)-4,6-dihydroxy-3-methylbenzoyl)isoindolin-5-yl)methyl)piperazin-1-yl)ethoxy)ethoxy)ethoxy)ethyl)amino)-2-(2,6-dioxopiperidin-3-yl)isoindoline-1,3-dione] returned a remaining activity at 1 µM of 10 to 25%. The same measure for `Cc1c(O)cc(O)c(C(=O)N2Cc3ccc(C(=O)N4CCC(OCCOCCOCCN5CCN(c6cc7c(cc6F)C(=O)N(C6CCC(=O)NC6=O)C7=O)CC5)CC4)cc3C2)c1OCc1ccccc1` (stereo not shown) [Example 18, 5-(4-(2-(2-(2-((1-(2-(2-(Benzyloxy)-4,6-dihydroxy-3-methylbenzoyl)isoindoline-5-carbonyl)piperidin-4-yl)oxy)ethoxy)ethoxy)ethyl)piperazin-1-yl)-2-(2,6-dioxopiperidin-3-yl)-6-fluoroisoindoline-1,3-dione]: 25 to 50%; for `Cc1ncsc1-c1ccc(CNC(=O)[C@@H]2C[C@@H](O)CN2C(=O)[C@@H](NC(=O)CCCCCCCCCC(=O)N2CCN(Cc3ccc4c(c3)CN(C(=O)c3c(O)cc(O)c(C)c3OCc3ccccc3)C4)CC2)C(C)(C)C)cc1` [Example 24, (2S,4R)-1-((S)-2-(11-(4-((2-(2-(Benzyloxy)-4,6-dihydroxy-3-methylbenzoyl)isoindolin-5-yl)methyl)piperazin-1-yl)-11-oxoundecanamino)-3,3-dimethylbutanoyl)-4-hydroxy-N-(4-(4-methylthiazol-5-yl)benzyl) pyrrolidine-2-carboxamide]: less than 10%.

`Cc1c(O)cc(O)c(C(=O)N2Cc3ccc(CN4CCN(CCOCCOCCOCCNc5cccc6c5CN(C5CCC(=O)NC5=O)C6=O)CC4)cc3C2)c1OCc1ccccc1` (stereo not shown) [Example 15, 3-(4-((2-(2-(2-(2-(4-((2-(2-(Benzyloxy)-4,6-dihydroxy-3-methylbenzoyl)isoindolin-5-yl)methyl)piperazin-1-yl)ethoxy)ethoxy)ethoxy)ethyl)amino)-1-oxoisoindolin-2-yl)piperidine-2,6-dione] gave a remaining activity at 1 µM of 10 to 25%. The same measure for `Cc1c(O)cc(O)c(C(=O)N2Cc3ccc(CN4CCN(CCOCCOCCOCCOCCOCCOCCNc5cccc6c5C(=O)N(C5CCC(=O)NC5=O)C6=O)CC4)cc3C2)c1OCC1CCCCC1` (stereo not shown) [Example 8, 4-[2-[2-[2-[2-[2-[2-[2-[4-[[2-[2-(Cyclohexylmethoxy)-4,6-dihydroxy-3-methyl-benzoyl]isoindolin-5-yl]methyl]piperazin-1-yl]ethoxy]ethoxy]ethoxy]ethoxy]ethoxy]ethoxy]ethylamino]-2-(2,6-dioxo-3-piperidyl)isoindoline-1,3-dione]: 10 to 25%; for `Cc1ncsc1-c1ccc(CNC(=O)[C@@H]2C[C@@H](O)CN2C(=O)[C@@H](NC(=O)CCCCCCCC(=O)N2CCN(Cc3ccc4c(c3)CN(C(=O)c3c(O)cc(O)c(C)c3OCC3CCCCC3)C4)CC2)C(C)(C)C)cc1` [Example 28, (2S,4R)-1-[(2S)-2-[[9-[4-[[2-[2-(Cyclohexylmethoxy)-4,6-dihydroxy-3-methyl-benzoyl]isoindolin-5-yl]methyl]piperazin-1-yl]-9-oxo-nonanoyl]amino]-3,3-dimethyl-butanoyl]-4-hydroxy-N-[[4-(4-methylthiazol-5-yl)phenyl]methyl]pyrrolidine-2-carboxamide]: less than 10%.

As to `Cc1c(O)cc(O)c(C(=O)N2Cc3ccc(CN4CCC(C(=O)N5CCN(c6ccc7c(c6)CN(C6CCC(=O)NC6=O)C7=O)CC5)CC4)cc3C2)c1OCC1CCCCC1` (stereo not shown) [Example 21, 3-(5-(4-(1-((2-(2-(cyclohexylmethoxy)-4,6-dihydroxy-3-methylbenzoyl)isoindolin-5-yl)methyl)piperidine-4-carbonyl)piperazin-1-yl)-1-oxoisoindolin-2-yl)piperidine-2,6-dione], the remaining activity at 1 µM was 10 to 25%.

What is called remaining activity is what remains of the control signal, in per cent. A high value points to a small loss of activity.
